ChEMBL document CHEMBL1141968, “A lead compound for the development of ABA 8'-hydroxylase inhibitors” (Bioorg Med Chem Lett, 2005)

Experiments:
[1] = target: T1, Abscisic acid 8'-hydroxylase 3 (Arabidopsis thaliana, UniProt Q9FH76); test: Inhibitory activity against recombinant CYP707A3 in Arabidopsis
T1 sequence (Q9FH76 whole entry): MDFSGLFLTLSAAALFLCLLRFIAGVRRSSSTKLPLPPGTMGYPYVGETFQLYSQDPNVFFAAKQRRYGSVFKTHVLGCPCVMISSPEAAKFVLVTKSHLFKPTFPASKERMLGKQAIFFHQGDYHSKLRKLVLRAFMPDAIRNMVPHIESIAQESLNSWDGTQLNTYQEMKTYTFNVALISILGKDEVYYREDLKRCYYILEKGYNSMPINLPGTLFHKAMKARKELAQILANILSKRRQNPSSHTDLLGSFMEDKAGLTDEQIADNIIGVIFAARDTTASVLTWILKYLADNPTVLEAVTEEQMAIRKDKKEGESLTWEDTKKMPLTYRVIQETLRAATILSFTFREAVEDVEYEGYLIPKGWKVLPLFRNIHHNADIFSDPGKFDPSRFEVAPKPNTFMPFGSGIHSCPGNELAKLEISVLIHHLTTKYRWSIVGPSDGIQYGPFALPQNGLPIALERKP

[2] = target: T1, Abscisic acid 8'-hydroxylase 3; test: Inhibitory activity against recombinant CYP707A3 in Arabidopsis at 50 uM
Lactuca sativa = test: Effect on seed germination in lettuce (Lactuca sativa L.Cv Grand Rapids); assay type: functional, organism-based
Oryza sativa = test: Effect on seed elongation in Rice (Oryza sativa L.Cv.Nipponbare); assay type: functional, organism-based

| SMILES | Ki [1] [nM] | inhibition at 50 µM [2] [%] | IC50 (Lactuca sativa) [nM] | IC50 [1] [nM] | IC50 (Oryza sativa) [nM] |
| --- | --- | --- | --- | --- | --- |
| CC1=CC(=O)C[C@](C)(C(F)F)[C@@]1(O)/C=C/C(C)=C\C(=O)O | 170 | – | – | – | – |
| C[C@H]1CCCC(C)(C)[C@@]1(O)/C=C/C=C\C(=O)O (racemic) | 400 | 90.9 | > 300000 | 910 | > 300000 |
| C[C@H]1CCC[C@](C)(C(F)F)[C@@]1(O)/C=C/C=C\C(=O)O (racemic) | 410 | 94 | 150000 | 630 | > 300000 |
| CC1=CC(=O)CC(C)(C)[C@@]1(O)/C=C/C(C)=C\C(=O)O [(+)-ABSCISIC ACID] | – | – | 12000 | – | 2000 |
